Experimental data as given in ChEMBL document CHEMBL5729568, “Ras inhibitors” (2023).

Experiments:
[1] = (§1) Biochemical Assay: A variety of Ras proteins may be inhibited by compounds of the present invention (e.g., K-Ras, N-Ras, H-Ras, and mutants thereof at positions 12, 13 and 61, such as G12C, G12D, G12V, G12S, G13C, G13D, and Q61L, and others described herein). The purpose of this biochemical assay is to measure the ability of test compounds to covalently label nucleotide-loaded K-Ras isoforms. […] The sample is incubated at 25? C. for a time period of up to 24 hours prior to quenching by the addition of 10 uL of 5% Formic Acid. Quenched samples are centrifuged at 15000 rpm for 15 minutes in a benchtop centrifuge before injecting a 10 uL aliquot onto a reverse phase C4 column and eluting into the mass spectrometer with an increasing acetonitrile gradient in the mobile phase. Analysis of raw data may be carried out using Waters MassLynx MS software, with % bound calculated from the deconvoluted protein peaks for labeled and unlabeled K-Ras.
[2] = biological target: T1, GTPase KRas (Homo sapiens, UniProt P01116); experiment: (§2) The purpose of this biochemical assay is to measure the ability of test compounds to covalently label nucleotide-loaded K-Ras isoforms. […] Analysis of raw data may be carried out using Waters MassLynx MS software, with % bound calculated from the deconvoluted protein peaks for labeled and unlabeled K-Ras.
[3] = biological target: GTPase NRas (Homo sapiens, UniProt P01111); experiment: as §1
[4] = as §1; remark: listed apart in the source
[5] = as §1; remark: listed apart in the source
[6] = as §1; remark: listed apart in the source
[7] = as §1; remark: listed apart in the source
[8] = as §1; remark: listed apart in the source
[9] = as §1; remark: listed apart in the source
[10] = biological target: T1, GTPase KRas; experiment: as §2; remark: listed apart in the source

GTPase NRas, sequence (P01111 whole entry, looked up): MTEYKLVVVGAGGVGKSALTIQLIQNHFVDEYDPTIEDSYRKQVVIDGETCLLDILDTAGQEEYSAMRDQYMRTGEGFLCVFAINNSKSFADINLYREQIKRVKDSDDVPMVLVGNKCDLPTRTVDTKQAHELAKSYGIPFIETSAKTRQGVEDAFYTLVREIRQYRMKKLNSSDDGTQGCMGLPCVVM

| IC50 [1] | IC50 [2] | IC50 [3] | IC50 [4] | IC50 [5] | IC50 [6] | IC50 [7] | IC50 [8] | IC50 [9] | IC50 [10] | Compound |
| --- | --- | --- | --- | --- | --- | --- | --- | --- | --- | --- |
| in the range around 55 nM | in the range around 5500 nM | in the range around 550 nM | in the range around 550 nM | in the range around 550 nM | in the range around 550 nM | in the range around 55 nM | in the range around 550 nM | in the range around 550 nM | in the range around 550 nM | CCn1c(-c2cccnc2C(C)OC)c2c3cc(ccc31)-c1cccc(c1)C[C@H](NC(=O)[C@H](C(C)C)N(C)C(=O)N1CCC13CN(C(=O)C#CC(C)(C)N(C)C)C3)C(=O)N1CCC[C@H](N1)C(=O)OCC(C)(C)C2 (stereo partly specified) |
| – | in the range around 5500 nM | – | – | – | – | in the range around 5500 nM | – | – | – | C=CC(=O)N1CC[C@H](C(=O)N(C)[C@H](C(=O)N[C@H]2Cc3cc(O)cc(c3)-c3ccc4c(c3)c(c(-c3nccnc3COC)n4CC)CC(C)(C)COC(=O)[C@@H]3CCCN(N3)C2=O)C(C)C)C1 |
| – | in the range around 55 nM | – | – | in the range around 550 nM | – | – | – | – | – | C=CC(=O)N1CC[C@H](C(=O)N(C)[C@H](C(=O)N[C@H]2Cc3cc(O)cc(c3)-c3ccc4c(c3)c(c(-c3cnccc3COC)n4CC)CC(C)(C)COC(=O)[C@@H]3CCCN(N3)C2=O)C(C)C)C1 |
| – | – | – | in the range around 550 nM | in the range around 550 nM | – | – | in the range around 550 nM | – | in the range around 550 nM | C=CC(=O)N1CCN(C(=O)N(C)[C@H](C(=O)N[C@H]2Cc3cc(O)cc(c3)-c3ccc4c(c3)c(c(-c3ccccc3CN(C)C)n4CC)CC(C)(C)COC(=O)[C@@H]3CCCN(N3)C2=O)C(C)C)CC1 |
| – | – | – | – | – | – | – | – | – | in the range around 550 nM | CCn1c(-c2cccnc2COC)c2c3cc(ccc31)-c1cc(O)cc(c1)C[C@H](NC(=O)[C@H](C(C)C)N(C)C(=O)[C@H]1CCN(C(=O)C#CCN(C)C)C1)C(=O)N1CCC[C@H](N1)C(=O)OCC(C)(C)C2 |
| – | in the range around 55 nM | – | in the range around 5500 nM | in the range around 550 nM | – | – | in the range around 5500 nM | – | in the range around 5500 nM | CCn1c(-c2ccccc2CCOC)c2c3cc(ccc31)-c1cc(O)cc(c1)C[C@H](NC(=O)[C@H](C(C)C)N(C)C(=O)[C@H]1CCN(C(=O)C#CCN(C)C)C1)C(=O)N1CCC[C@H](N1)C(=O)OCC(C)(C)C2 |
| – | in the range around 5500 nM | – | – | – | – | in the range around 5500 nM | – | – | – | C=CC(=O)N1CC[C@H](C(=O)N(C)[C@H](C(=O)N[C@H]2Cc3cc(O)cc(c3)-c3ccc4c(c3)c(c(-c3ncccc3COC)n4CC)CC(C)(C)COC(=O)[C@@H]3CCCN(N3)C2=O)C(C)C)C1 |
